From patent publication US20250288647A1, “ANGIOGENESIS INHIBITING PEPTIDE AND USE THEREOF” (SEOUL NATIONAL UNIVERSITY HOSPITAL, priority 2021, published 2025)

How the values were obtained:
PDGF receptor [1] = test: Real-time degree of binding using BLtz instrument (ForteBio); conditions: FIGS. 2A to 2I
Source text: (§1) FIG. 2 is a view showing the results of confirming the degree of binding of the peptides using BLtz system according to an exemplary embodiment of the present invention to a VEGF receptor and a PDGF receptor. FIG. 2A is a view showing the results of Peptides 1 to 3, FIG. 2B is a view showing the results of Peptide 8, FIG. 2C is a view showing the results of Peptide 9, FIG. 2D is a view showing the results of Peptide 10, FIG. 2E is a view showing the results of Peptide 11, FIG. 2F is a view showing the results of Peptide 12, FIG. 2G is a view showing the results of Peptide 13, FIG. 2H is a view showing the results of Peptide 14, and FIG. 2I is a view showing the results of Peptide 15.
(§2) In addition, the degree of binding between the peptides and the receptors was confirmed in real time using a BLtz instrument (ForteBio).

VEGF receptor [2] = test: as above; conditions: FIGS. 2A to 2I
Source text: as §1, §2

PDGF receptor [3] = test: Surface plasmon resonance (SPR) binding test, Biacore T200; conditions: PDGF receptor 400 ng/ml, CM5 chip
Description: (§3) It was confirmed that the prepared peptides have binding affinity to VEGF receptors and PDGF receptors using surface plasmon resonance (SPR). More specifically, SPR was performed using a Biacore T200 (GE Healthcare) device and a CM5 chip (GE Healthcare, Cat #. BR-1005-30), and the obtained results were analyzed using BIAevaluation software version 3.0 (GE Healthcare). For a binding test, a concentration of 200 ng/mL was used for the VEGF receptor and a concentration of 400 ng/ml was used for the PDGF receptor.

VEGF receptor [4] = test: as above; conditions: VEGF receptor 200 ng/mL, CM5 chip
Description: as §3

CD31 = CD31 staining of cancer tissue sections (angiogenesis in cancer tissue); type: in vivo, NSG mice; conditions: tissue sections of cancer tissue obtained at 14 days, FIG. 4
Description: (§4) As a control, an equal amount of phosphate buffered saline (PBS) was mixed with Matrigel and injected. After the mice were euthanized 14 days later, cancer tissue was obtained and the size of cancer was measured. All animal handling and procedures were performed in accordance with research protocols approved by the Animal Care and Use Committee of Seoul National University Hospital. Thereafter, in all experiments, statistical significance between two groups was confirmed by a Student's t-test, and when P<0.05, it was determined to be statistically significant. Then, the obtained cancer tissue was fixed using a 4% paraformaldehyde solution, embedded using paraffin, and then cut to a thickness of […] to prepare a tissue section. The prepared tissue section was then stained using a CD31 antibody (Abcam) that specifically binds to CD31, a blood vessel-specific gene, and DAPI.

[5] = test system: MDA-MB-231 breast cancer cell line; test: Anticancer effect: MDA-MB-231 cells mixed with peptide and Matrigel injected subcutaneously, size of cancer; type: in vivo, NSG mice; conditions: 14 days after subcutaneous injection with 2×10^6 MDA-MB-231 cells and Matrigel, compared to PBS control, FIG. 3
Description: as §4

[6] = test system: mice with oxygen-induced retinopathy; test: Oxygen-induced retinopathy mice, intravitreal injection, isolectin staining, area of neovascular tufts; type: in vivo; conditions: 1 μL intravitreal, right eye, 5 days after injection, FIGS. 5 and 6
Description: Two days later, for the prepared mice with retinopathy, 1 μL of phosphate buffer solution, Peptide 1, Peptide 4, and KAI1 protein (CD82), which is known to bind to VEGF and PDGF, were intravitreally injected to the right eye of each of the mice, respectively. Mice were euthanized 5 days after injection and enucleated eyes were prepared. The prepared enucleated eye was immunostained using 5 μg/mL Alexa Fluor 594 isolectin GS-IB4 conjugate (Invitrogen), and then observed using a fluorescence microscope. Thereafter, the area of neovascular tufts was quantified as a percentage of the total retina using Image J (NIH).

Molecule | degree of binding to the PDGF receptor (BLtz) (PDGF receptor [1]) | degree of binding to the VEGF receptor (BLtz) (VEGF receptor [2]) | binding to the PDGF receptor (SPR) (PDGF receptor [3]) | binding to the VEGF receptor (SPR) (VEGF receptor [4]) | CD31 antibody staining (fluorescence intensity) in cancer tissue (CD31) | size of cancer [5] | angiogenesis inhibitory effect in retinopathy (area of neovascular tufts as percentage of total retina) [6]
NHPEDWPVYQEGC [Peptide 15] | stably bound | stably bound | bound strongly | bound strongly |  |  | 
NRPEVTAPASCEVKGAAANS [Peptide 4] |  |  |  |  | remarkably high | size of cancer was remarkably increased | did not show an angiogenesis inhibitory effect
NRPEVTAPASCEVKGEEDNS [Peptide 2] | weak binding affinity | weak binding affinity | bound weakly | bound weakly |  |  | 
NRPEVTYPCSCEVKGAAANS [Peptide 3] | weak binding affinity | weak binding affinity |  |  |  |  | 
NRPEVTYPCSCEVKGEEDNS [Peptide 1] | highest binding affinity | highest binding affinity | bound strongly | bound strongly | almost no portion stained with a CD31 antibody | size of cancer was inhibited compared to the control | angiogenesis inhibitory effect similar to that of the comparative group administered the KAI1 protein
SFYNWTDNAELMN [Peptide 9] | stably bound | stably bound | bound strongly | bound strongly |  |  | 
KAI1 protein: KAI1 protein (CD82), which is known to bind to VEGF and PDGF; comparative group (protein, UniProt P27701 1-267, looked up) CD82 antigen: MGSACIKVTKYFLFLFNLIFFILGAVILGFGVWILADKSSFISVLQTSSSSLRMGAYVFIGVGAVTMLMGFLGCIGAVNEVRCLLGLYFAFLLLILIAQVTAGALFYFNMGKLKQEMGGIVTELIRDYNSSREDSLQDAWDYVQAQVKCCGWVSFYNWTDNAELMNRPEVTYPCSCEVKGEEDNSLSVRKGFCEAPGNRTQSGNHPEDWPVYQEGCMEKVQAWLQENLGIILGVGVGVAIIELLGMVLSICLCRHVHSEDYSKVPKY |  |  |  |  |  |  | angiogenesis inhibitory effect
